Results as given in ChEMBL document CHEMBL6109094, “Anti-inflammatory agents design via the fragment hybrid strategy in the discovery of compound c1 for treating ALI and UC” (Eur J Med Chem, 2025).
Activity calls are given as the source filed them. No cut-off for these calls is given here.

Assays:
RAW264.7 [1] = test: Inhibition of MAPK signalling pathway in mouse RAW264.7 cells assessed as reduction in p38 phosphorylation at 2.5 uM preincubated for 2 hrs followed by LPS addition measured after 30 mins by Western blot analysis; assay type: cell-based; conditions: time 2.5 hrs
[2] = Acute toxicity in C57BL/6 mouse assessed as change in pathological change in liver at 100 to 200 mg/kg, po measured for 10 days by H and E staining based analysis; assay type: organism-based; conditions: in vivo, 240 h, dose 100-200 mg/kg, time 10 day
[3] = Tmax in Sprague-Dawley rat at 10 mg/kg, po measured for 24 hrs; assay type: ADME, organism-based; conditions: in vivo
[4] = Oral bioavailability in Sprague-Dawley rat at 10 mg/kg measured for 24 hrs; assay type: ADME, organism-based; conditions: in vivo
Mus musculus [5] = test: Anti-inflammatory activity in C57BL/6 mouse model of DSS-induced ulcerative colitis assessed as decrease in inflammatory cell infiltration in splenic tissue at 20 to 40 mg/kg, po administered for 8 days […]; assay type: functional, organism-based; conditions: dose 20-40 mg/kg, time 8.0 day
[6] = target: Mitogen-activated protein kinase 9 (Homo sapiens) (UniProt P45984); test: Inhibition of JNK2 (unknown origin) at 10 uM relative to control
Mitogen-activated protein kinase 9 (Homo sapiens), sequence (P45984 whole entry, looked up): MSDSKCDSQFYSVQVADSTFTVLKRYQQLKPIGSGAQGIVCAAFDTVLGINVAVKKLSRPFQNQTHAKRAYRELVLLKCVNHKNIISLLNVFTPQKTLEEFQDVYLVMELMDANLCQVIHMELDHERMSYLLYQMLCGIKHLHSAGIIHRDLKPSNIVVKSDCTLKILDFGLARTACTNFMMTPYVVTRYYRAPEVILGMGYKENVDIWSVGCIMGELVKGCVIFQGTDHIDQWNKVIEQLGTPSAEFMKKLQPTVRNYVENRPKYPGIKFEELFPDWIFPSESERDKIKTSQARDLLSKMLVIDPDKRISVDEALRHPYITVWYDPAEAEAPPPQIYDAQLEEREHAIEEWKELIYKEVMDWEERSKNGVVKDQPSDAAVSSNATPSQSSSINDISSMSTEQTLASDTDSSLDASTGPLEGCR

[7] = Acute toxicity in C57BL/6 mouse assessed as change in pathological change in heart at 100 to 200 mg/kg, po measured for 10 days by H and E staining based analysis; assay type: organism-based; conditions: in vivo, 240 h, dose 100-200 mg/kg, time 10 day
RAW264.7 [8] = test: cells; conditions: Mus musculus
Description: Anti-inflammatory activity in mouse RAW264.7 cells assessed as inhibition of LPS-induced TNF-alpha level preincubated for 30 mins followed by LPS addition measured after 24 hrs by ELISA

Mus musculus [9] = test: Anti-inflammatory activity in C57BL/6 mouse model of DSS-induced ulcerative colitis assessed as decrease in hyperplasia in white pulp of spleen administered orally for 8 days; assay type: functional, organism-based; conditions: dose 20-40 mg/kg, route po, time 8.0 day
Mus musculus [10] = test: (§1) Anti-inflammatory activity in C57BL/6 mouse model of LPS-induced ALI assessed as inhibition of TNF-alpha level in serum at 20 mg/kg, po measured after 6 hrs with administered on every 12 hrs followed by LPS treatment after 30 mins post-compound treatment by ELISA; assay type: functional, organism-based; conditions: time 6.5 hrs
[11] = AUC (0 to t) in Sprague-Dawley rat at 1 mg/kg, iv measured for 24 hrs; assay type: ADME, organism-based; conditions: in vivo
Mus musculus [12] = test: as §1, with “decrease” for “inhibition of TNF-alpha level”, “inflammatory cell infiltration in lung tissue” for “serum”, “H and E/IHC staining based analysis” for “ELISA”; assay type: functional, organism-based; conditions: time 6.5 hrs
Mus musculus [13] = test: Anti-inflammatory activity in C57BL/6 mouse model of DSS-induced ulcerative colitis assessed as colon length at 100 mg/kg, po administered for 8 days (reference value: 5.1 cm); assay type: functional, organism-based; conditions: time 8.0 day
Mus musculus [14] = test: Anti-inflammatory activity in C57BL/6 mouse model of LPS-induced ALI assessed as decrease in spleen weight at 20 mg/kg, po measured after 6 hrs with administered on every 12 hrs followed by LPS treatment after 30 mins post-compound treatment; assay type: functional, organism-based; conditions: time 6.5 hrs
RAW264.7 [15] = test: Anti-inflammatory activity in mouse RAW264.7 cells assessed as inhibition of LPS-induced IL-6 level at 10 uM preincubated for 30 mins followed by LPS addition measured after 24 hrs by ELISA relative to control; assay type: functional; conditions: time 24.5 hrs
[16] = target: Interleukin-1 receptor-associated kinase 1 (Homo sapiens) (UniProt P51617); test: Inhibition of IRAK1 (unknown origin) at 10 uM relative to control
Interleukin-1 receptor-associated kinase 1 (Homo sapiens), sequence (P51617 whole entry, looked up): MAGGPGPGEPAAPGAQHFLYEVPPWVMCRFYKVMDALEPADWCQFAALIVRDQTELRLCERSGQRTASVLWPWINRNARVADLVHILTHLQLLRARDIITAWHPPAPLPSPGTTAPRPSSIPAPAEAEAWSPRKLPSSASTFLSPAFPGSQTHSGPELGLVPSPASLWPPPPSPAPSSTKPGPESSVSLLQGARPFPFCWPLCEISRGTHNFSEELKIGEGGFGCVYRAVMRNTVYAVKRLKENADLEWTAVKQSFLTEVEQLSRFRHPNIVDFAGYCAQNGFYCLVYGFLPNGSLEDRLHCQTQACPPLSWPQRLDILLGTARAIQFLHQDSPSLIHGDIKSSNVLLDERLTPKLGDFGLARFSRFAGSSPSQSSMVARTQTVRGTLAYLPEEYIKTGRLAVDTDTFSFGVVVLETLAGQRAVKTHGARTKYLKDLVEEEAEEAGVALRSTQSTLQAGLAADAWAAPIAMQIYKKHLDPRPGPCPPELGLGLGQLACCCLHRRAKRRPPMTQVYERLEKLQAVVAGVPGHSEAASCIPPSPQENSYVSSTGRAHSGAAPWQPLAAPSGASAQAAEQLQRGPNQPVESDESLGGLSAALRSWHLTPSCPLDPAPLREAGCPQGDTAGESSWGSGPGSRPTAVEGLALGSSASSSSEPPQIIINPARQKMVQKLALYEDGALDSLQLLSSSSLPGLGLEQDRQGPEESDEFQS

Mus musculus [17] = test: Anti-inflammatory activity in C57BL/6 mouse model of DSS-induced ulcerative colitis assessed as colon length at 40 mg/kg, po administered for 8 days (reference value: 5.1 cm); assay type: functional, organism-based; conditions: time 8.0 day
[18] = Acute toxicity in C57BL/6 mouse assessed as change in daily activities at 100 to 200 mg/kg, po measured for 10 days; assay type: organism-based; conditions: in vivo, 240 h, dose 100-200 mg/kg, time 10 day
RAW264.7 [19] = test: Inhibition of MAPK signalling pathway in mouse RAW264.7 cells assessed as reduction in JNK phosphorylation at 2.5 uM preincubated for 2 hrs followed by LPS addition measured after 30 mins by Western blot analysis; assay type: cell-based; conditions: time 2.5 hrs
[20] = Cmax in Sprague-Dawley rat at 1 mg/kg, iv measured for 24 hrs; assay type: ADME, organism-based; conditions: in vivo
[21] = Half life in Sprague-Dawley rat at 10 mg/kg, po measured for 24 hrs; assay type: ADME, organism-based; conditions: in vivo
Mus musculus [22] = test: Anti-inflammatory activity in C57BL/6 mouse model of DSS-induced ulcerative colitis assessed as decrease in serum IL-6 level at 20 to 40 mg/kg, po administered for 8 days by ELISA; assay type: functional, organism-based; conditions: dose 20-40 mg/kg, time 8.0 day
Mus musculus [23] = test: Anti-inflammatory activity in C57BL/6 mouse model of DSS-induced ulcerative colitis assessed as decrease in macrophage population in red pulp of spleen administered orally for 8 days; assay type: functional, organism-based; conditions: dose 20-40 mg/kg, route po, time 8.0 day
Mus musculus [24] = test: Anti-inflammatory activity in C57BL/6 mouse model of LPS-induced ALI assessed as inhibition of IL-6 level in BALF at 20 mg/kg, po measured after 6 hrs with administered on every 12 hrs followed by LPS treatment after 30 mins post-compound treatment by ELISA; assay type: functional, organism-based; conditions: time 6.5 hrs
Mus musculus [25] = test: Anti-inflammatory activity in C57BL/6 mouse model of LPS-induced ALI assessed as decrease in protein concentration in BALF at 20 mg/kg, po measured after 6 hrs with administered on every 12 hrs followed by LPS treatment after 30 mins post-compound treatment; assay type: functional, organism-based; conditions: time 6.5 hrs
Mus musculus [26] = test: Anti-inflammatory activity in C57BL/6 mouse model of LPS-induced ALI assessed as decrease in total cell count in BALF at 20 mg/kg, po measured after 6 hrs with administered on every 12 hrs followed by LPS treatment after 30 mins post-compound treatment; assay type: functional, organism-based; conditions: time 6.5 hrs
[27] = Half life in Sprague-Dawley rat at 1 mg/kg, iv measured for 24 hrs; assay type: ADME, organism-based; conditions: in vivo
J774.A1 [28] = test: cells; conditions: Mus musculus
Description: Anti-inflammatory activity in mouse J774.A1 cells assessed as inhibition of LPS-induced TNF-alpha level preincubated for 30 mins followed by LPS addition measured after 24 hrs by ELISA

J774.A1 [29] = test: cells; conditions: Mus musculus; remark: listed apart in the source
Description: Anti-inflammatory activity in mouse J774.A1 cells assessed as inhibition of LPS-induced IL-6 level preincubated for 30 mins followed by LPS addition measured after 24 hrs by ELISA

[30] = target: Mitogen-activated protein kinase 14 (Homo sapiens) (UniProt Q16539); test: Inhibition of p38-alpha (unknown origin) at 10 uM relative to control
Mitogen-activated protein kinase 14 (Homo sapiens), sequence (Q16539 whole entry): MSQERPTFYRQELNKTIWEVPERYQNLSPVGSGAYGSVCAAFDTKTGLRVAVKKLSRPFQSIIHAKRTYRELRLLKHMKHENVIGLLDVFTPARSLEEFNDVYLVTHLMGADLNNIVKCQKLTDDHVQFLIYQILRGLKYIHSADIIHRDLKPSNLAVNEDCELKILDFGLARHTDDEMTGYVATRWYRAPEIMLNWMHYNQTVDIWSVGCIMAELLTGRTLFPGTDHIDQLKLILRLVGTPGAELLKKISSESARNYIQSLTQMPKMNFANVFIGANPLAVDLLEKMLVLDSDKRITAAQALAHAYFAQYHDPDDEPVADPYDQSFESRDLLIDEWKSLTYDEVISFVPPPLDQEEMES

Mus musculus [31] = test: Anti-inflammatory activity in C57BL/6 mouse model of LPS-induced ALI assessed as decrease in lung wet to dry ratio at 20 mg/kg, po measured after 6 hrs with administered on every 12 hrs followed by LPS treatment after 30 mins post-compound treatment; assay type: functional, organism-based; conditions: time 6.5 hrs
Mus musculus [32] = test: Anti-inflammatory activity in C57BL/6 mouse model of DSS-induced ulcerative colitis assessed as decrease in DAI score at 20 to 40 mg/kg, po administered for 8 days; assay type: functional, organism-based; conditions: dose 20-40 mg/kg, time 8.0 day
[33] = Acute toxicity in C57BL/6 mouse assessed as change in physiological state at 100 to 200 mg/kg, po measured for 10 days; assay type: organism-based; conditions: in vivo, 240 h, dose 100-200 mg/kg, time 10 day
Mus musculus [34] = test: Anti-inflammatory activity in C57BL/6 mouse model of DSS-induced ulcerative colitis assessed as decrease in inflammatory cell infiltration in colonic tissue at 20 to 40 mg/kg, po administered for 8 days […]; assay type: functional, organism-based; conditions: dose 20-40 mg/kg, time 8.0 day
Mus musculus [35] = test: Anti-inflammatory activity in C57BL/6 mouse model of DSS-induced ulcerative colitis assessed as colon length at 20 mg/kg, po administered for 8 days (reference value: 5.1 cm); assay type: functional, organism-based; conditions: time 8.0 day

COc1cc2c(O[C@H]3CC[C@@H](N)CC3)ncnc2cc1OCc1cccc(Br)c1
inhibition (RAW264.7 [1]): Active | Activity [2]: Non-toxic | Tmax [3]: 2 h | bioavailability [4]: 5.5% | Activity (Mus musculus [5]): Active | inhibition [6]: 2.49% | Activity [7]: Non-toxic | IC50 (RAW264.7 [8]): 1.52 µM | Activity (Mus musculus [9]): Dose-dependent-effect | inhibition (Mus musculus [10]): Active | AUC(0-t) at 24 h [11]: 7730 ng·h/mL | Activity (Mus musculus [12]): Active | Activity (Mus musculus [13]): Active | Activity (Mus musculus [14]): Active | inhibition at 10 µM (RAW264.7 [15]): 73.6% | inhibition [16]: 88.2% | Activity (Mus musculus [17]): Active | Activity [18]: Non-toxic | inhibition (RAW264.7 [19]): Active | Cmax [20]: 7280 ng/mL | half-life [21]: 3 h | Activity (Mus musculus [22]): Active; Activity Was Comparable To 5-Asa | Activity (Mus musculus [23]): Dose-dependent-effect | inhibition (Mus musculus [24]): Active | Activity (Mus musculus [25]): Active | Activity (Mus musculus [26]): Active | half-life [27]: 1.77 h | IC50 (J774.A1 [28]): 1.33 µM | IC50 (J774.A1 [29]): 1.5 µM | inhibition [30]: 31.4% | Activity (Mus musculus [31]): Active | Activity (Mus musculus [32]): Active | Activity [33]: Non-toxic | Activity (Mus musculus [34]): Active | Activity (Mus musculus [35]): Active
